Assay [1] relates to MIA PaCa-2 cells. Nature of the assay: 3D-TGA. The assay is classed as cell-based, human. Particulars: Homo sapiens, read-out: IC50 in 3D-TGA Osimertinib; MIA PACA-2, PAN, KRAS G12C; agent alone.
Assay [2] concerns NCI-H508 cells. Nature of the assay: 3D-TGA. The assay is classed as cell-based. Particulars: Homo sapiens, read-out: IC50 in 3D-TGA Osimertinib; NCI-H508, COL, BRAF G596R; agent alone.
Assay [3] has as its system SK-CO-1 cells. The experiment in a line: 3D-TGA. The assay is classed as cell-based. Particulars: Homo sapiens, read-out: IC50 in 3D-TGA Osimertinib; SK-CO-1, COL, KRAS G12V; agent alone.
Assay [4] concerns LS411N cells. The experiment in a line: 3D-TGA. The assay is classed as cell-based. Particulars: Homo sapiens, LS-411N, LS411N, COL, BRAF V600E.
Assay [5] relates to NCI-H358 cells. The experiment in a line: 3D-TGA. To be noted: Homo sapiens, read-out: IC50 in 3D-TGA Osimertinib; NCI-H358, LUN, KRAS G12C; agent alone. Format: cell-based, human.
In assay [6] the test system is NCI-H1792 cells. The experiment in a line: 3D-TGA. To be noted: Homo sapiens, read-out: IC50 in 3D-TGA Osimertinib; NCI-H1792, LUN, KRAS G12C; agent alone. The assay is classed as cell-based, human.
Assay [7] has as its system NCI-H820 cells. Nature of the assay: 3D-TGA. The assay is classed as cell-based. Particulars: Homo sapiens, read-out: IC50 in 3D-TGA Osimertinib; NCI-H820, LUN, EGFR T790M; agent alone.
In assay [8] the test system is NCI-H1975 cells. Nature of the assay: 3D-TGA. Format: cell-based. To be noted: Homo sapiens, read-out: IC50 in 3D-TGA Osimertinib; NCI-H1975, LUN, EGFR L858R; agent alone.
Assay [9] relates to NCI-H1650 cells. Nature of the assay: 3D-TGA. The assay is classed as cell-based. Particulars: Homo sapiens, NCI-H1650, read-out: IC50 in 3D-TGA Osimertinib.
Assay [10] deals with NCI-H2172 cells. The experiment in a line: 3D-TGA. The assay is classed as cell-based. To be noted: Homo sapiens, read-out: IC50 in 3D-TGA Osimertinib; NCI-H2172, LUN, EGFR L858R; agent alone.
For assay [11], the system named is HCC827 cells. The experiment in a line: cells. Format: cell-based. Particulars: Homo sapiens, HCC827, read-out: IC50 in 3D-TGA Osimertinib.
Assay [12] concerns HT-29 BRAF^V600E colorectal cancer xenograft. The experiment in a line: HT-29 colorectal xenograft tumor model. Format: in vivo, athymic nude mice. Particulars: HT-29 BRAFV600E xenograft. The source says:
An integrated translational platform with integrated bioinformatics utilized patient-aligned model systems was used to identify key factors that help predict response to Compound A and its unique DCI profile.

Assay [13] concerns HT-29 cells. Nature of the assay: 3D-TGA. The assay is classed as cell-based, human. Particulars: Homo sapiens, HT-29, read-out: IC50 in 3D-TGA Encorafenib. The procedure, abridged:
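Read-out: percentage of EdU-positive cells, quantified by high-content imaging and image segmentation. Cultures were 3D in BME mixed 1:1 with custom medium, 3000 cells/well, kept at 37° C under 5% CO2 and 5% O2.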

For assay [14], the system named is A375 cells. Nature of the assay: 3D-TGA. Format: cell-based. Particulars: Homo sapiens, A-375, read-out: IC50 in 3D-TGA Encorafenib. The protocol:
Cells were seeded in 3D cultures in a black-walled, clear-bottom, non-tissue culture treated, 384-well plate (3000 cells per well) using a 1:1 mixture of BME and a custom media and grown in a humidified incubator with 5% CO2 and 5% O2, which approximates capillary levels for each gas, at 37° C. […] Cells were assessed for cell proliferation using EdU cell proliferation staining. […] Cells were permeabilized with 30 μL of filtered 0.5% Triton X-100 in PBS for 20 minutes at room temperature. Samples were washed twice gently with PBS. Cells were stained utilizing click-iT chemistry by adding 20 μL of staining cocktail containing 2 mM copper sulfate, 8 μM sulfo-Cy5-azide, and 20 mg/ml ascorbic acid in PBS and incubated 30-60 minutes at room temperature in dark. […] Plates were imaged with the Molecular Devices Pico ImageXpress. Images were segmented and percentage of cells with EdU incorporation was quantified to calculate antiproliferative effects of the drugs.
Five (5)-ethynyl-2′-deoxyuridine (EdU) data was represented as percentage EdU positive cells quantified by high content imaging from the Molecular Devices ImageXpress® Pico.

As a reminder, the IC50 is the point on the concentration scale where inhibition reaches its midpoint.

Where two headings read alike, the source gives them in different places.

Regarding `C=CC(=O)Nc1cc(Nc2nccc(-c3cn(C)c4ccccc34)n2)c(OC)cc1N(C)CCN(C)C` [Osimertinib, osimertinib], the IC50 in [1] was determined as […]; in [2], […]; in assay [3] it was […]; in assay [4] (read-out: IC50 in 3D-TGA Osimertinib, agent alone), […]; in assay [5] it was […]; in assay [6], […]. The IC50 in assay [7] is […]; in assay [8] it was […]; in [9] it was […]; in [10], […]; in [11], 50 nM.
On to `COC(=O)N[C@@H](C)CNc1nccc(-c2cn(C(C)C)nc2-c2cc(Cl)cc(NS(C)(=O)=O)c2F)n1` [encorafenib], for which the “tumor growth inhibition, monotherapy” value in [12] is listed as “superior tumor growth inhibition to binimetinib”. Also, the IC50 in assay [13] is over 1000 nM; in assay [4] (read-out: IC50 in 3D-TGA Encorafenib), over 1000 nM; in assay [14] it was under 50 nM.
